Bridge positions count the residues as written; N and C are the ends. Peptide text beside a SMILES is read from it. * marks the point of attachment. Biotin = O=C1N[C@H]2[C@H](CS[C@H]2CCCCC(=O)*)N1
Test system: ZNRF3
Experiment: SPR binding to ZNRF3 (specificity)
Conditions: for binding to ZNRF3: protein immobilized, untagged DCP injected
Procedure: SPR measurement was carried out using a Biacore S200 (Cytiva) instrument, with PBS-T (PBS with 0.05% Tween 20, pH 7.4) as the buffer. Biotinylated protein was captured on three sensor channels of Series S SA Sensors (Cytiva). The sensors were then blocked with 0.1 mg/mL biotin. DCPs were injected onto the sensor in a 3× concentration series. The data were double-referenced by subtracting the signal from a sensor channel coated with biotin only and the signal from a buffer injection. For data analysis, binding data were fitted using the manufacturer’s software. ,

| Structure (SMILES) | binding to ZNRF3 | binding to ZNRF3, peptide immobilized (bio-GUR-1.6.12.2 on streptavidin sensor) |
| --- | --- | --- |
| CC[C@H](C)[C@H](NC(=O)[C@@H]1CSSC[C@H](NC(=O)[C@H](CCC(N)=O)NC(=O)[C@H](CO)NC(=O)[C@H](Cc2ccc(O)cc2)NC(=O)[C@H](CCCCN)NC(=O)[C@H](Cc2ccccc2)NC(=O)[C@H](CC(N)=O)NC(=O)[C@@H]2CSSC[C@H](NC(=O)[C@H](CCC(N)=O)NC(=O)[C@@H](N)CCC(=O)O)C(=O)N[C@@H](CC(=O)O)C(=O)N[C@@H](CCC(N)=O)C(=O)N[C@@H]([C@@H](C)O)C(=O)N[C@@H](CC(N)=O)C(=O)N[C@@H](CC(C)C)C(=O)N[C@@H](Cc3ccccc3)C(=O)N2)C(=O)N[C@H]2CSSC[C@H](NC(=O)[C@H](CC(=O)O)NC(=O)[C@H](CC(C)C)NC(=O)[C@@H]3CCCN3C(=O)[C@H](Cc3c[nH]c4ccccc34)NC2=O)C(=O)N[C@@H](CCCNC(=N)N)C(=O)N[C@@H](Cc2c[nH]c3ccccc23)C(=O)N[C@@H](C)C(=O)N[C@@H](C(C)C)C(=O)N[C@@H](CCCCN)C(=O)N[C@@H](Cc2ccc(O)cc2)C(=O)N[C@@H](CCC(N)=O)C(=O)N[C@@H](Cc2c[nH]c3ccccc23)C(=O)N[C@@H](Cc2ccccc2)C(=O)N[C@@H](Cc2c[nH]c3ccccc23)C(=O)N[C@@H](CC(=O)O)C(=O)N1)C(=O)NCC(=O)O [GUR-1.6.12.4] (H-EQCDQTNLFCNFKYSQCCWPLDCRWAVKYQWFWDCIG-OH; disulfide 3-10, 17-35, 18-23) | lack of binding |  |
| CC[C@H](C)[C@H](NC(=O)[C@@H]1CSSC[C@H](NC(=O)[C@H](CCC(N)=O)NC(=O)[C@@H](NC(=O)[C@H](Cc2ccc(O)cc2)NC(=O)[C@@H](NC(=O)[C@H](CC(C)C)NC(=O)CNC(=O)[C@@H]2CSSC[C@H](NC(=O)[C@H](CCC(N)=O)NC(=O)[C@@H](N)CCC(=O)O)C(=O)N[C@@H](CC(=O)O)C(=O)N[C@@H](CCC(N)=O)C(=O)N[C@@H](CC(=O)O)C(=O)N[C@@H](C)C(=O)N[C@@H](CO)C(=O)N[C@@H](C)C(=O)N2)[C@@H](C)CC)[C@@H](C)O)C(=O)N[C@H]2CSSC[C@H](NC(=O)[C@H](CC(=O)O)NC(=O)[C@H](CC(C)C)NC(=O)[C@@H]3CCCN3C(=O)[C@H](Cc3c[nH]c4ccccc34)NC2=O)C(=O)N[C@@H](CCCNC(=N)N)C(=O)N[C@@H](Cc2c[nH]c3ccccc23)C(=O)N[C@@H](C)C(=O)N[C@@H](C(C)C)C(=O)N[C@@H](CCCCN)C(=O)N[C@@H](Cc2ccc(O)cc2)C(=O)N[C@@H](CCC(N)=O)C(=O)N[C@@H](Cc2c[nH]c3ccccc23)C(=O)N[C@@H](Cc2ccccc2)C(=O)N[C@@H](Cc2c[nH]c3ccccc23)C(=O)N[C@@H](CC(=O)O)C(=O)N1)C(=O)NCC(=O)O [GUR-1.6.12.12] (H-EQCDQDASACGLIYTQCCWPLDCRWAVKYQWFWDCIG-OH; disulfide 3-10, 17-35, 18-23) | lack of binding |  |
| CC[C@H](C)[C@H](NC(=O)[C@@H]1CSSC[C@H](NC(=O)[C@H](CO)NC(=O)[C@H](Cc2c[nH]cn2)NC(=O)[C@@H](NC(=O)[C@@H]2CCCN2C(=O)[C@H](CCC(N)=O)NC(=O)[C@@H](NC(=O)[C@@H]2CSSC[C@H](NC(=O)[C@H](CCC(N)=O)NC(=O)[C@@H](N)CCC(=O)O)C(=O)N[C@@H](CCCNC(=N)N)C(=O)N[C@@H](CCC(=O)O)C(=O)N[C@@H](Cc3c[nH]cn3)C(=O)N[C@@H](Cc3ccccc3)C(=O)N[C@@H](Cc3c[nH]cn3)C(=O)N[C@@H](CC(=O)O)C(=O)N2)C(C)C)[C@@H](C)CC)C(=O)N[C@H]2CSSC[C@H](NC(=O)[C@H](CC(=O)O)NC(=O)[C@H](CC(C)C)NC(=O)[C@@H]3CCCN3C(=O)[C@H](Cc3c[nH]c4ccccc34)NC2=O)C(=O)N[C@@H](CCCNC(=N)N)C(=O)N[C@@H](Cc2c[nH]c3ccccc23)C(=O)N[C@@H](C)C(=O)N[C@@H](C(C)C)C(=O)N[C@@H](CCCCN)C(=O)N[C@@H](Cc2ccc(O)cc2)C(=O)N[C@@H](CCC(N)=O)C(=O)N[C@@H](Cc2c[nH]c3ccccc23)C(=O)N[C@@H](Cc2ccccc2)C(=O)N[C@@H](Cc2c[nH]c3ccccc23)C(=O)N[C@@H](CC(=O)O)C(=O)N1)C(=O)NCC(=O)O [GUR-1.6.12.16] (H-EQCREHFHDCVQPIHSCCWPLDCRWAVKYQWFWDCIG-OH; disulfide 3-10, 17-35, 18-23) | lack of binding |  |
| CC[C@H](C)[C@H](NC(=O)[C@@H]1CSSC[C@H](NC(=O)[C@@H](NC(=O)[C@H](Cc2c[nH]cn2)NC(=O)[C@H](CO)NC(=O)[C@H](Cc2ccc(O)cc2)NC(=O)[C@H](CC(=O)O)NC(=O)[C@H](Cc2c[nH]cn2)NC(=O)[C@@H]2CSSC[C@H](NC(=O)[C@H](CCC(N)=O)NC(=O)[C@H](CCC(=O)O)NC(=O)CCCC[C@@H]3SC[C@@H]4NC(=O)N[C@@H]43)C(=O)N[C@@H]([C@@H](C)O)C(=O)N[C@@H](CO)C(=O)N[C@@H]([C@@H](C)O)C(=O)N[C@@H](CCC(N)=O)C(=O)N[C@@H](CC(=O)O)C(=O)N[C@@H](CC(C)C)C(=O)N2)C(C)C)C(=O)N[C@H]2CSSC[C@H](NC(=O)[C@H](CC(=O)O)NC(=O)[C@H](CC(C)C)NC(=O)[C@@H]3CCCN3C(=O)[C@H](Cc3c[nH]c4ccccc34)NC2=O)C(=O)N[C@@H](CCCNC(=N)N)C(=O)N[C@@H](Cc2c[nH]c3ccccc23)C(=O)N[C@@H](C)C(=O)N[C@@H](C(C)C)C(=O)N[C@@H](CCCCN)C(=O)N[C@@H](Cc2ccc(O)cc2)C(=O)N[C@@H](CCC(N)=O)C(=O)N[C@@H](Cc2c[nH]c3ccccc23)C(=O)N[C@@H](Cc2ccccc2)C(=O)N[C@@H](Cc2c[nH]c3ccccc23)C(=O)N[C@@H](CC(=O)O)C(=O)N1)C(=O)NCC(=O)O [bio-GUR-1.6.12.2] (Biotin-EQCTSTQDLCHDYSHVCCWPLDCRWAVKYQWFWDCIG-OH; disulfide 3-10, 17-35, 18-23) |  | without binding to ZNRF3 |
